Where two headings read alike, the source gives them in different places.
Tested on: Bacillus subtilis ATCC 6633
Test: Test for antibacterial activity (paper disk, diameter of inhibitory zone, before and after incubation in rat liver/kidney homogenate)
Type: cell-based
Details: 200 mcq/ml, 8 mm paper disk
Procedure: Each of the test compounds shown in the following table was dissolved in a concentration of 200 mcq/ml in a homogenate of a 10% physiological saline solution of an organ of a rat, and incubated at 37° C. for 2 hours. An enzymatic reaction was stopped by adding an equal amount of ethanol. The antibacterial activity of the test compound before incubation was compared with that after incubation. The incubation was carried out in an equal amount mixture of a liver homogenate and a kidney homogenate. The antibacterial activity was measured by a paper disk having a diameter of 8 mm using Bacillus subtilis ATCC 6633 as a test organism, and shown by the diameter of the resulting inhibitory zone.

[1] = ATCC6633, after incubation at 37° C. for 2 hours in rat liver homogenate and kidney homogenate, read-out: Diameter of the inhibitory zone, after incubation
[2] = ATCC6633, before incubation, read-out: Diameter of the inhibitory zone, before incubation

Compound | zone of inhibition at 200 µg/mL [1] | zone of inhibition at 200 µg/mL [2]
CCCCCCCCCC(=O)NCCCCC(NC(=O)CC[C@H](N)C(=O)NCC(=O)N(C)C1C(O)CC(N)C(OC2OC(C(C)N)CCC2N)C1O)C(=O)OC (stereo partly drawn) [Example 49, 2"-N-{N^γ -[5-(decanoylamino)-1-(methoxycarbonyl)pentyl]-L-glutaminyl}-5-de-O-methyl-KA-6066I] | 16.1 mm | 15.9 mm
CCCCCCCCOC(=O)C[C@H](N)C(=O)NCC(=O)N(C)C1C(O)CC(N)C(OC2OC(C(C)N)CCC2N)C1O (stereo partly drawn) [Example 10, 2"-N-(β-O-octyl-L-aspartyl)-5-de-O-methyl-KA-6606I] | 21.1 mm | 14.2 mm
COC(=O)C[C@H](N)C(=O)NCC(=O)N(C)C1C(O)CC(N)C(OC2OC(C(C)N)CCC2N)C1O (stereo partly drawn) [Example 8, 2"-N-(β-O-methyl-L-aspartyl)-5-de-O-methyl-KA-666I] | 23.9 mm | 15.9 mm
CCCCCCCCCCCCCCCCCCCCCCCC(=O)NCCCNC(=O)CC[C@H](N)C(=O)NCC(=O)N(C)C1C(O)CC(N)C(OC2OC(C(C)N)CCC2N)C1O (stereo partly drawn) [Example 41, 2"-N-[N^γ -(3-lignocerolylaminopropyl)-L-glutaminyl]-5-de-O-methyl-KA-6606I] | 14.1 mm | 8 mm
CCCCCCCCCCNC(=O)CC[C@H](N)C(=O)NCC(=O)N(C)C1C(O)CC(N)C(OC2OC(C(C)N)CCC2N)C1O (stereo partly drawn) [Example 32, 2"-N-(N^γ -decyl-L-glutaminyl)-5-de-O-methyl-KA-6606I] | 19 mm | 14.1 mm
CCCCCCCC(=O)NCCCNC(=O)CC[C@H](N)C(=O)NCC(=O)N(C)C1C(O)CC(N)C(OC2OC(C(C)N)CCC2N)C1O (stereo partly drawn) [Example 37, 2"-N-[N^γ -(3-octanoylaminopropyl)-L-glutaminyl]-5-do-O-methyl-KA-6606I] | 25.1 mm | 14.1 mm
CC(N)C1CCC(N)C(OC2C(N)CC(O)C(N(C)C(=O)CNC(=O)[C@@H](N)CCC(=O)NCCCCCCCCO)C2O)O1 (stereo partly drawn) [Example 42, 2"-N-[N^γ -(8-hydroxyoctyl)-L-glutaminyl]-5-de-O-methyl-KA-6606I] | 23 mm | 15.1 mm
CCCCCCCCCC(=O)NCCCNC(=O)CC[C@H](N)C(=O)NCC(=O)N(C)C1C(OC)CC(N)C(OC2OC(CNC)CCC2N)C1O (stereo partly drawn) [Example 57, 2"-N-[N^γ -(3-decanoylaminopropyl)-L-glutaminyl]-KA-7038I] | 23 mm | 15.9 mm
CCCCCCCCOC(=O)NCCCC[C@H](N)C(=O)NCC(=O)N(C)C1C(O)CC(N)C(OC2OC(C(C)N)CCC2N)C1O (stereo partly drawn) [Example 7, 2"-N-(N^ε -octyloxycarbonyl-L-lysyl)-5-de-O-methyl-KA-6606I] | 20.7 mm | 10.5 mm
CCCCCCNC(=O)CNC(=O)CC[C@H](N)C(=O)NCC(=O)N(C)C1C(O)CC(N)C(OC2OC(C(C)N)CCC2N)C1O (stereo partly drawn) [Example 44, 2"-N-[N^γ -(hexylaminocarbonylmethyl)-L-glutaminyl]-5-de-O-methyl-KA-6606I] | 20.2 mm | 8 mm
CC(=O)OC1CCC2(C)C(CCC3C2CC(OC(C)=O)C2(C)C(C(C)CCC(=O)NCCCNC(=O)CCC(N)C(=O)NCC(=O)N(C)C4C(O)CC(N)C(OC5OC(C(C)N)CCC5N)C4O)CCC32)C1 [Example 45, 2"-N-{N^γ -[3-(3,12-di-O-acetyldeoxycholylamino)propyl]-L-glutaminyl}-5-de-O-methyl-KA-6606I] | 16.7 mm | 14.8 mm
CC(=O)NCCCC[C@H](N)C(=O)NCC(=O)N(C)C1C(O)CC(N)C(OC2OC(C(C)N)CCC2N)C1O (stereo partly drawn) [Example 1, 2"-N-(N^ε -acetyl-L-lysyl)-5-de-O-methyl-KA-6606I] | 25.1 mm | 14.1 mm
CC(N)C1CCC(N)C(OC2C(N)CC(O)C(N(C)C(=O)CNC(=O)[C@@H](N)CCC(=O)Nc3cccc4ccccc34)C2O)O1 (stereo partly drawn) [Example 33, 2"-N-[N^γ-(1-naphthyl)-L-glutamin-yl]-de-O-methyl-KA-6606I] | 23.5 mm | 15.7 mm
CCCCCCCCCC(=O)OCCCOC(=O)CC[C@H](N)C(=O)NCC(=O)N(C)C1CCC(N)C(OC2OC(C(C)N)CCC2N)C1O (stereo partly drawn) [Example 56, 2"-N-[N^γ -(3-decanoyloxypropyl)-L-glutamyl)-5-demethoxy-KA-6606I] | 24.6 mm | 17.5 mm
CCCNC(=O)CC[C@H](N)C(=O)NCC(=O)N(C)C1C(O)CC(N)C(OC2OC(C(C)N)CCC2N)C1O (stereo partly drawn) [Example 29, 2"-N-(N^γ -propyl-L-glutaminyl)-5-de-O-methyl-KA-6606I] | 24.6 mm | 15.1 mm
CCCCCC(=O)NCCCNC(=O)CC[C@H](N)C(=O)NCC(=O)N(C)C1C(O)CC(N)C(OC2OC(C(C)N)CCC2N)C1O (stereo partly drawn) [Example 36, 2"-N-[N^γ -(3-hexanoylaminopropyl)-L-glutaminyl]-5-de-O-methyl-KA-6606I] | 22.8 mm | 10.5 mm
CCCCCCCCCC(=O)OCC(COC(=O)CCCCCCCCC)OC(=O)CCC(N)C(=O)NCC(=O)N(C)C1C(O)CC(N)C(OC2OC(C(C)N)CCC2N)C1O [Example 16, 2"-N-{γ-O-[2-(1,3-bis-decanoyloxy)propyl]-L-glutamyl}-5-de-O-methyl-KA-6606I] | 17.5 mm | 12.5 mm
CCCCCCCCCCCCCCCCCC(=O)OCCCOC(=O)CC[C@H](N)C(=O)NCC(=O)N(C)C1C(O)CC(N)C(OC2OC(C(C)N)CCC2N)C1O (stereo partly drawn) [Example 19, 2"-N-[γ-O-(3-stearoyloxypropyl)-L-glutamyl]-5-de-O-methyl-KA-6606I] | 22.7 mm | 13.7 mm
CCCCCCCCCCCC(=O)NCCCNC(=O)CC[C@H](N)C(=O)NCC(=O)N(C)C1C(O)CC(N)C(OC2OC(C(C)N)CCC2N)C1O (stereo partly drawn) [Example 39, 2"-N-[N^γ -(3-lauroylaminopropyl)-L-glutaminyl]-5-de-O-methyl-KA-6606I] | 21.2 mm | 9.8 mm
CC(N)C1CCC(N)C(OC2C(N)CC(O)C(N(C)C(=O)CNC(=O)[C@@H](N)CSC(c3ccccc3)c3ccccc3)C2O)O1 (stereo partly drawn) [Example 53, 2"-N-(S-diphenylmethyl-L-cysteinyl)-5-de-O-methyl-KA-6606I] | 24.3 mm | 16.5 mm
CCCCCCCCCCCCCCCCCC(=O)OCCCCOC(=O)CC[C@H](N)C(=O)NCC(=O)N(C)C1C(O)CC(N)C(OC2OC(C(C)N)CCC2N)C1O (stereo partly drawn) [Example 24, 2"-N-[γ-O-(4-stearoyloxybutyl)-L-glutamyl]-5-de-O-methyl-KA-6606I] | 22.6 mm | 16.2 mm
CC(N)C1CCC(N)C(OC2C(N)CC(O)C(N(C)C(=O)CNC(=O)[C@@H](N)CCC(=O)N[C@@H](Cc3ccccc3)C(=O)O)C2O)O1 (stereo partly drawn) [Example 47, 2"-N-{N^γ -[(s)-1-carboxy-2-phenyl-ethyl]-L-glutaminyl}-5-de-O-methyl-KA-6606I] | 17.9 mm | 9.5 mm
CC(N)C1CCC(N)C(OC2C(N)CC(O)C(N(C)C(=O)CNC(=O)[C@@H](N)CC(=O)Oc3cccc4ccccc34)C2O)O1 (stereo partly drawn) [Example 12, 2"-N-[β-O-(α-naphthyl)-L-aspartyl]-5-de-O-methyl-KA-6606I] | 18.3 mm | 12.6 mm
